Experimental findings from US20120059011A1, “PHARMACEUTICAL COMPOSITIONS OF COMBINATIONS OF DIPEPTIDYL PEPTIDASE-4 INHIBITORS WITH PIOGLITAZONE” (priority 2009, published 2012) are described below.

The data set in a line: chemical stability of pioglitazone HCl with lubricants (disproportionation to free base). The data set is classed as physicochemical. The following applies: in contact with lubricants, such as magnesium stearate and sodium stearyl fumarate. The method, then: The pharmaceutical compositions of the present invention are prepared by wet processing methods. In one embodiment the pharmaceutical compositions are prepared by wet granulation methods, such as fluid bed granulation or high-shear granulation. In a class of this embodiment, the pharmaceutical compositions are prepared by fluid-bed granulation. Fluid bed granulation processing has the advantage of affording tablets with higher diametric strength. Further, wet processing methods utilizing an intragranular portion containing Sitagliptin phosphate monohydrate, Pioglitazone HCl, a binding agent, and optionally a disintegrant, enhance the chemical stability of Sitagliptin phosphate monohydrate and pioglitazone HCl. […] The fluid bed granulation method utilizing an intragranular portion containing Pioglitazone HCl, Sitagliptin phosphate monohydrate, a binding agent, and optionally a disintegrant, minimizes the disproportionation of Pioglitazone HCl to the pioglitazone free base.

SMILES strings stand for the structures. Where a name gives a salt, the structure may show the parent alone.

For `CCc1ccc(CCOc2ccc(CC3SC(=O)NC3=O)cc2)nc1` (racemic) [Pioglitazone HCl, [(±)-5-[[4-[2-(5-ethyl-2-pyridinyl)ethoxy]phenyl]-methyl]-2,4-]thiazolidinedione monohydrochloride], the “disproportionation of Pioglitazone HCl to the Pioglitazone free base” value is reported as “react with lubricants”.
